# Test results reported in patent publication US20250177363A1, “SUBSTITUTED IMIDAZOPYRIDINYL COMPOUNDS USEFUL AS INHIBITORS OF TLR9” (Bristol-Myers Squibb Company, priority 2022, published 2025).
# Legend:
# Type in all cases: cell-based
# [1] = target: T1, human TLR8 (Homo sapiens, UniProt Q9NR97); assay: TLR8 inhibition reporter assay (HEK-Blue, SEAP); conditions: HEK-Blue cells overexpressing human TLR8, ligand R848 14.25 μM, 22 hour incubation
# T1 construct: host or cells: HEK-Blue cells
# T1 sequence (Q9NR97 27-1041): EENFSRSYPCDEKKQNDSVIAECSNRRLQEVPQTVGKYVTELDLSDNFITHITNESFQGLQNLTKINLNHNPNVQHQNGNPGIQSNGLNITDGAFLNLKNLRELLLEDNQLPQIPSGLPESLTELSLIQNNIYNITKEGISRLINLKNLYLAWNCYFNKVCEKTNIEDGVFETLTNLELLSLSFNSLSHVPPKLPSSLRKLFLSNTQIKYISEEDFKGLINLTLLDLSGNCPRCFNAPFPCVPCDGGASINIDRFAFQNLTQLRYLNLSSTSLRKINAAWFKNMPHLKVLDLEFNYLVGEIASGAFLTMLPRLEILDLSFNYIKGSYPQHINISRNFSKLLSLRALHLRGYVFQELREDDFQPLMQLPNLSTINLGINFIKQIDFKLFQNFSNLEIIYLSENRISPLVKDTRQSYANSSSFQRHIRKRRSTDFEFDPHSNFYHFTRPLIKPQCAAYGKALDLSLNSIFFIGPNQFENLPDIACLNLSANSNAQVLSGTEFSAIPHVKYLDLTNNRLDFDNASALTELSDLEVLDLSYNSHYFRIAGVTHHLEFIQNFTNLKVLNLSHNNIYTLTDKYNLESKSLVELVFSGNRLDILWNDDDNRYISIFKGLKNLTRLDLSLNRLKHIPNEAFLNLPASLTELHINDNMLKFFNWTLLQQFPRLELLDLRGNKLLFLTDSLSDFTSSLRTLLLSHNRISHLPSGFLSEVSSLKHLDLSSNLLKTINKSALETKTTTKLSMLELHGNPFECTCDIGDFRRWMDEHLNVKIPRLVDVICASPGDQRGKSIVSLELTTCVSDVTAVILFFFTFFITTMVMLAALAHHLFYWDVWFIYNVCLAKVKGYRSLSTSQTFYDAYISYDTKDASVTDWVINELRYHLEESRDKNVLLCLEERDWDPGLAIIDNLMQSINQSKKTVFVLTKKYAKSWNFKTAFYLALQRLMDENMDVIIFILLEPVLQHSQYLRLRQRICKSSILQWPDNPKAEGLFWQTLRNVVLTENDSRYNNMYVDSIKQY
# In short: (§1)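 HEK-Blue cells expressing human TLR7, TLR8 or TLR9 with NF-κB/AP-1-driven SEAP reporter; compounds 0.85 nM–50 μM, pre-treated 60 min. Stimulation: gardiquimod 2.5 μM (TLR7), R848 14.25 μM (TLR8), ODN2006 200 nM (TLR9); SEAP read after 22 h at 37 °C. Percent inhibition normalized between agonist+DMSO and known-inhibitor wells.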
# [2] = target: T2, human TLR7 (Homo sapiens, UniProt Q9NYK1); assay: TLR7 inhibition reporter assay (HEK-Blue, SEAP); conditions: HEK-Blue cells overexpressing human TLR7, ligand gardiquimod 2.5 μM, 22 hour incubation
# T2 construct: host or cells: HEK-Blue cells
# T2 sequence (Q9NYK1 27-1049): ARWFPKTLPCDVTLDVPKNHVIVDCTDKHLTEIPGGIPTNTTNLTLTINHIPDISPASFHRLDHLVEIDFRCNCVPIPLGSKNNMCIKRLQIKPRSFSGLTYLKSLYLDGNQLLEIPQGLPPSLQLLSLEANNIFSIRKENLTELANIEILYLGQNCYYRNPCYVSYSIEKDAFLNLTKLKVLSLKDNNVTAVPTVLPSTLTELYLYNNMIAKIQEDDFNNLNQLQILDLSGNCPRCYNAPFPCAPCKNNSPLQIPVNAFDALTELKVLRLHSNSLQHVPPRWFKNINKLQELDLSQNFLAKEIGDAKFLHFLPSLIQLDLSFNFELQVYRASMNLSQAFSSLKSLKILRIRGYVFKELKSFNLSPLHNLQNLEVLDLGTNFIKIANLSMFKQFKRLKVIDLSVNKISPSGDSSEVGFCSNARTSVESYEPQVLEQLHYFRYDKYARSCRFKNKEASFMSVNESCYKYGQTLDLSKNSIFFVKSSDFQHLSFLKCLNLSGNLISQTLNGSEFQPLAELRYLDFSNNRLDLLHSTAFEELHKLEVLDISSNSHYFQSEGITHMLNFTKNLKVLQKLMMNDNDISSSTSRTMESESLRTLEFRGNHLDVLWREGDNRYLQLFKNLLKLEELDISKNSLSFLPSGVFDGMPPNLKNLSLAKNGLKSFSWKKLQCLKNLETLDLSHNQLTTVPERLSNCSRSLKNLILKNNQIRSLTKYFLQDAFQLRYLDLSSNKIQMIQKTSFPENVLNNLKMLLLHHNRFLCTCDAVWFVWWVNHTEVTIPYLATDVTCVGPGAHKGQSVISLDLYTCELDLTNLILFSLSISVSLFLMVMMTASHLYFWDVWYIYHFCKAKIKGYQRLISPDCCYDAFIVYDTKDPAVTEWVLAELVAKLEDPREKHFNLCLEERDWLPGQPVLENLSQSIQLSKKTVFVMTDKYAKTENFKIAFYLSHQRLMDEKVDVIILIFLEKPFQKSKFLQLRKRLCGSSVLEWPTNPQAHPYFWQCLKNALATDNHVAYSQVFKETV
# In short: as §1
# [3] = target: T3, human TLR9 (Homo sapiens, UniProt Q9NR96); assay: TLR9 inhibition reporter assay (HEK-Blue, SEAP); conditions: HEK-Blue cells overexpressing human TLR9, ligand ODN2006 200 nM, 22 hour incubation
# T3 construct: host or cells: HEK-Blue cells
# T3 sequence (Q9NR96 26-1032): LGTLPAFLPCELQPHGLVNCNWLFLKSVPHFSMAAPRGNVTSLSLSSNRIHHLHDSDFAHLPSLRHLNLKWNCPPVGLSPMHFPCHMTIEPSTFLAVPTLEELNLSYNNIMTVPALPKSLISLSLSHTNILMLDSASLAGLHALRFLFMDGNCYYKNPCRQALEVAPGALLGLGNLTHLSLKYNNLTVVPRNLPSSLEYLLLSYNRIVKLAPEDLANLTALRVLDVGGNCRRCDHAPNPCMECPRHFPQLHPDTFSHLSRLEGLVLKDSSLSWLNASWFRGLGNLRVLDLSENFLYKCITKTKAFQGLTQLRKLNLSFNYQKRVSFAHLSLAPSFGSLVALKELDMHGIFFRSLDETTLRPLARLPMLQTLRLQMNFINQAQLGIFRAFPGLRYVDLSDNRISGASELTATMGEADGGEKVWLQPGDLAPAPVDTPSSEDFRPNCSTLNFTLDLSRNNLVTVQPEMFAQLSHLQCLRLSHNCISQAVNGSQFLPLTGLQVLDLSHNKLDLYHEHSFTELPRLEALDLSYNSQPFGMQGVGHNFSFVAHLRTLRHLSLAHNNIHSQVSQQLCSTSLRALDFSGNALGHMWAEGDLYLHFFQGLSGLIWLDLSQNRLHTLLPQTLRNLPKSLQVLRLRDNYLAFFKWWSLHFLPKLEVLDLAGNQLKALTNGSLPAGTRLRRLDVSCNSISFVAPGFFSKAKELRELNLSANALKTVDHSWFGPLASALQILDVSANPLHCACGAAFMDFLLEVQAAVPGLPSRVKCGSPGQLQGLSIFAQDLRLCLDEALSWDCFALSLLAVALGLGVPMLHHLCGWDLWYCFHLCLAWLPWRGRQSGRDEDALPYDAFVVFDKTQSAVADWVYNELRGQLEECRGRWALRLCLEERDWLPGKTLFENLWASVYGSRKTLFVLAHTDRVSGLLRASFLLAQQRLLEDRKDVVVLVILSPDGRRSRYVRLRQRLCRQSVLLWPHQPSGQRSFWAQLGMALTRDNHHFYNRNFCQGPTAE
# In short: as §1
structure (smiles),measurement,setting,value
"CC(C)N1CC2(CN(c3ccc(-c4ccc5nc(-c6ccc(S(C)(=O)=O)cc6)n(C)c5n4)cc3)C2)C1 [Example 65, 5-(4-(6-isopropyl-2,6-diazaspiro[3.3]heptan-2-yl)phenyl)-3-methyl-2-(4-(methylsulfonyl)phenyl)-3H-imidazo[4,5-b]pyridine]",IC50,[1],3 µM
same,IC50,[2],> 50 µM
same,IC50,[3],0.74 µM
"COc1ccc(-c2nc3c(C)cc(C4CCN([C@H]5C[C@@H]6CN(C7CCC7)C[C@@H]6C5)CC4)nc3n2C)cc1OC [Example 39, 5-(1-(2-cyclobutyloctahydrocyclopenta[c]pyrrol-5-yl)piperidin-4-yl)-2-(3,4-dimethoxyphenyl)-3,7-dimethyl-3H-imidazo[4,5-b]pyridine]",IC50,[1],24 µM
same,IC50,[2],0.31 µM
same,IC50,[3],0.13 µM
"CS(=O)(=O)c1ccc(-c2nc3ccc(-c4ccc(N5CCN(CCN6CCOCC6)CC5)cc4)nc3n2C2CC2)cc1 [Example 57, 4-(2-(4-(4-(3-cyclopropyl-2-(4-(methylsulfonyl)phenyl)-3H-imidazo[4,5-b]pyridin-5-yl)phenyl)piperazin-1-yl)ethyl)morpholine]",IC50,[1],> 50 µM
same,IC50,[2],> 50 µM
same,IC50,[3],3.2 µM
"Cc1cc(-c2ccc(CN3CCC(N4CCCC4)CC3)cc2)nc2c1nc(-c1ccc(S(C)(=O)=O)cc1)n2C1CC1 [Example 2, 3-cyclopropyl-7-methyl-2-(4-(methylsulfonyl)phenyl)-5-(4-((4-(pyrrolidin-1-yl)piperidin-1-yl)methyl)phenyl)-3H-imidazo[4,5-b]pyridine]",IC50,[1],31 µM
same,IC50,[2],7.2 µM
same,IC50,[3],0.1 µM
"COCCN1C[C@H]2C[C@H](N3CCC(c4cc(C)c5nc(-c6ccc(OC)c(OC)c6)n(C)c5n4)CC3)C[C@H]2C1 [Example 41, 2-(3,4-dimethoxyphenyl)-5-(1-((3aR,5s,6aS)-2-(2-methoxyethyl)octahydrocyclopenta[c]pyrrol-5-yl)piperidin-4-yl)-3,7-dimethyl-3H-imidazo[4,5-b]pyridine]",IC50,[1],> 50 µM
same,IC50,[2],0.48 µM
same,IC50,[3],0.073 µM
"CC(C)N1CCC(N2CCC(c3ccc4nc(-c5ccc(S(C)(=O)=O)cc5)n(C)c4n3)CC2)CC1 [Example 17, 5-(1′-isopropyl-[1,4′-bipiperidin]-4-yl)-3-methyl-2-(4-(methylsulfonyl)phenyl)-3H-imidazo[4,5-b]pyridine]",IC50,[1],> 50 µM
same,IC50,[2],18 µM
same,IC50,[3],0.071 µM
"COc1ccc(-c2nc3c(C)cc(C4CCN([C@H]5C[C@@H]6CN(C7CCOCC7)C[C@@H]6C5)CC4)nc3n2C)cc1OC [Example 40, 2-(3,4-dimethoxyphenyl)-3,7-dimethyl-5-(1-(2-(tetrahydro-2H-pyran-4-yl)octahydrocyclopenta[c]pyrrol-5-yl)piperidin-4-yl)-3H-imidazo[4,5-b]pyridine]",IC50,[1],> 50 µM
same,IC50,[2],1.3 µM
same,IC50,[3],0.22 µM
"Cc1cc(-c2ccc(N3CCN(C(C)C)CC3)cc2)nc2c1nc(-c1ccc(S(C)(=O)=O)cc1)n2C [Example 7, 5-(4-(4-isopropylpiperazin-1-yl)phenyl)-3,7-dimethyl-2-(4-(methylsulfonyl)phenyl)-3H-imidazo[4,5-b]pyridine]",IC50,[1],> 50 µM
same,IC50,[2],29 µM
same,IC50,[3],1.2 µM
"Cc1cc(C2CCN(C3CC4CCC(C3)N4C3CCC3)CC2)nc2c1nc(-c1ccc(S(C)(=O)=O)cc1)n2C (stereo not drawn) [Example 32, 5-(1-(8-cyclobutyl-8-azabicyclo[3.2.1]octan-3-yl)piperidin-4-yl)-3,7-dimethyl-2-(4-(methylsulfonyl)phenyl)-3H-imidazo[4,5-b]pyridine]",IC50,[1],> 50 µM
same,IC50,[2],1.6 µM
same,IC50,[3],0.042 µM
"Cc1cc(-c2ccc(N3CCN(CC(C)C)CC3)cc2)nc2c1nc(-c1ccc(S(C)(=O)=O)cc1)n2C [Example 8, 5-(4-(4-isobutylpiperazin-1-yl)phenyl)-3,7-dimethyl-2-(4-(methylsulfonyl)phenyl)-3H-imidazo[4,5-b]pyridine]",IC50,[1],> 50 µM
same,IC50,[2],> 50 µM
same,IC50,[3],1.7 µM
"Cc1cc(C2CCN(C3CC4CCC(C3)N4C3CCOCC3)CC2)nc2c1nc(-c1ccc(S(C)(=O)=O)cc1)n2C (single isomer, unassigned) [Example 35, 3,7-dimethyl-2-(4-(methylsulfonyl)phenyl)-5-(1-(8-(tetrahydro-2H-pyran-4-yl)-8-azabicyclo[3.2.1]octan-3-yl)piperidin-4-yl)-3H-imidazo[4,5-b]pyridine]",IC50,[1],> 50 µM
same,IC50,[2],7.4 µM
same,IC50,[3],0.34 µM
"Cc1cc(C2CCN(C3CC4CCC(C3)N4CC3CC3)CC2)nc2c1nc(-c1ccc(S(C)(=O)=O)cc1)n2C (single isomer, unassigned) [Example 31, 5-(1-(8-(cyclopropylmethyl)-8-azabicyclo[3.2.1]octan-3-yl)piperidin-4-yl)-3,7-dimethyl-2-(4-(methylsulfonyl)phenyl)-3H-imidazo[4,5-b]pyridine]",IC50,[1],19 µM
same,IC50,[2],7.2 µM
same,IC50,[3],0.24 µM
